In the test the test system is Radical scavenging activity. In words: Antioxidant activity assessed as DPPH radical scavenging activity at 20 uM after 2 min by spectrophotometric analysis. Type of test: functional.

The source made the active and inactive calls. No cut-off for these calls is given here.

Here are results for two molecules from ChEMBL document CHEMBL3046107, “A new isoflavone from Blepharis ciliaris of an Egyptian origin” (Med Chem Res, 2013).

Regarding `O=C(/C=C/c1ccc(O)c(O)c1)OC[C@H]1O[C@@H](Oc2cc(O)c3c(=O)c(-c4ccc(O)cc4)coc3c2)[C@H](O)[C@@H](O)[C@@H]1O`, the result was inactive. Take `O=C(/C=C/c1ccc(O)c(O)c1)OC[C@H]1O[C@@H](Oc2cc(O)c3c(c2)O[C@H](c2ccc(O)cc2)CC3=O)[C@H](O)[C@@H](O)[C@@H]1O`: the outcome was inactive.
